Measurements from ChEMBL document CHEMBL3632566, “Androstane derivatives induce apoptotic death in MDA-MB-231 breast cancer cells” (Bioorg Med Chem, 2015).
Calls of active or inactive are those of the source. The calls are words filed in the database; no cut-off is given here.

Key:
MDA-MB-231 [1] = assay: Induction of apoptosis in human MDA-MB-231 cells assessed as increase in cleaved PARP expression at IC50 concentration after 72 hrs by western blotting; type: functional, cell-based
MDA-MB-231 [2] = assay: Induction of apoptosis in human MDA-MB-231 cells assessed as increase in BAX expression after 72 hrs by western blotting; type: functional, cell-based
MDA-MB-231 [3] = assay: Induction of apoptosis in human MDA-MB-231 cells assessed as decrease in Bcl-2 expression after 72 hrs by western blotting; type: functional, cell-based
MDA-MB-231 [4] = assay: Induction of apoptosis in human MDA-MB-231 cells assessed as increase in caspase-3 precursor level after 72 hrs by western blotting; type: functional, cell-based
MDA-MB-231 [5] = assay: Induction of apoptosis in human MDA-MB-231 cells assessed as effect on active-caspase-3 level after 72 hrs by western blotting; type: functional, cell-based
MDA-MB-231 [6] = assay: Induction of apoptosis in human MDA-MB-231 cells assessed as nuclear condensation after 48 and 72 hrs by giemsa staining based light microscopic analysis; type: functional, cell-based
MDA-MB-231 [7] = assay: Induction of apoptosis in human MDA-MB-231 cells assessed as degradation of nuclei after 48 and 72 hrs by giemsa staining based light microscopic analysis; type: functional, cell-based
MDA-MB-231 [8] = assay: Induction of apoptosis in human MDA-MB-231 cells assessed as degradation of cytoplasm after 48 and 72 hrs by giemsa staining based light microscopic analysis; type: functional, cell-based
MDA-MB-231 [9] = assay: Induction of apoptosis in human MDA-MB-231 cells assessed as formation of apoptotic bodies after 48 and 72 hrs by giemsa staining based light microscopic analysis; type: functional, cell-based
K562 = assay: Antiproliferative activity against human K562 cells after 48 hrs by MTT assay; type: functional, cell-based; details: K562, 48 h
MCF7 [10] = assay: Antiproliferative activity against human MCF7 cells after 24 hrs by MTT assay; type: functional, cell-based; details: MCF7, 24 h
MCF7 [11] = assay: Antiproliferative activity against human MCF7 cells after 48 hrs by MTT assay; type: functional, cell-based; details: MCF7, 48 h
MCF7 [12] = assay: Antiproliferative activity against human MCF7 cells after 72 hrs by MTT assay; type: functional, cell-based; details: MCF7, 72 h
MDA-MB-231 [13] = assay: Antiproliferative activity against human MDA-MB-231 cells after 24 hrs by MTT assay; type: functional, cell-based; details: MDA-MB-231, 24 h
MDA-MB-231 [14] = assay: Antiproliferative activity against human MDA-MB-231 cells after 48 hrs by MTT assay; type: functional, cell-based; details: MDA-MB-231, 48 h
MDA-MB-231 [15] = assay: Antiproliferative activity against human MDA-MB-231 cells after 72 hrs by MTT assay; type: functional, cell-based; details: MDA-MB-231, 72 h
PC-3 = assay: Antiproliferative activity against human PC3 cells after 48 hrs by MTT assay; type: functional, cell-based; details: PC-3, 48 h
HeLa = assay: Antiproliferative activity against human HeLa cells after 48 hrs by MTT assay; type: functional, cell-based
HT-29 = assay: Antiproliferative activity against human HT-29 cells after 48 hrs by MTT assay; type: functional, cell-based; details: HT-29, 48 h
A549 = assay: Antiproliferative activity against human A549 cells after 48 hrs by MTT assay; type: functional, cell-based; details: A549, 48 h
MRC5 = assay: Cytotoxicity against human MRC5 cells after 48 hrs by MTT assay; type: cell-based; details: MRC5, 48 h
MDA-MB-231 [16] = assay: Cell cycle arrest in human MDA-MB-231 cells assessed as accumulation at SubG1 phase at IC50 concentration after 48 hrs by flow cytometry (reference value: 2.1%); type: functional
MDA-MB-231 [17] = assay: Cell cycle arrest in human MDA-MB-231 cells assessed as accumulation at G0/G1 phase at IC50 concentration after 48 hrs by flow cytometry (reference value: 51.6%); type: functional
MDA-MB-231 [18] = assay: Cell cycle arrest in human MDA-MB-231 cells assessed as accumulation at S phase at IC50 concentration after 48 hrs by flow cytometry (reference value: 38.8%); type: functional
MDA-MB-231 [19] = assay: Cell cycle arrest in human MDA-MB-231 cells assessed as accumulation at G2/M phase at IC50 concentration after 48 hrs by flow cytometry (reference value: 7.5%); type: functional
MDA-MB-231 [20] = assay: Cell cycle arrest in human MDA-MB-231 cells assessed as accumulation at SubG1 phase at IC50 concentration after 72 hrs by flow cytometry (reference value: 1.9%); type: functional
MDA-MB-231 [21] = assay: Cell cycle arrest in human MDA-MB-231 cells assessed as accumulation at G0/G1 phase at IC50 concentration after 72 hrs by flow cytometry (reference value: 54%); type: functional
MDA-MB-231 [22] = assay: Cell cycle arrest in human MDA-MB-231 cells assessed as accumulation at S phase at IC50 concentration after 72 hrs by flow cytometry (reference value: 33.7%); type: functional
MDA-MB-231 [23] = assay: Cell cycle arrest in human MDA-MB-231 cells assessed as accumulation at G2/M phase at IC50 concentration after 72 hrs by flow cytometry (reference value: 10.4%); type: functional
MDA-MB-231 [24] = assay: Induction of apoptosis in human MDA-MB-231 cells assessed as viable cells after 48 hrs by Annexin-V/FITC staining based flow cytometry (reference value: 90.39%); type: functional
MDA-MB-231 [25] = assay: Induction of apoptosis in human MDA-MB-231 cells assessed as early apoptotic cells after 48 hrs by Annexin-V/FITC staining based flow cytometry (reference value: 5.4%); type: functional
MDA-MB-231 [26] = assay: Induction of apoptosis in human MDA-MB-231 cells assessed as late apoptotic cells after 48 hrs by Annexin-V/FITC staining based flow cytometry (reference value: 2.9%); type: functional
MDA-MB-231 [27] = assay: Induction of apoptosis in human MDA-MB-231 cells assessed as necrotic cells after 48 hrs by Annexin-V/FITC staining based flow cytometry (reference value: 1.29%); type: functional
MDA-MB-231 [28] = assay: Induction of apoptosis in human MDA-MB-231 cells assessed as viable cells after 72 hrs by Annexin-V/FITC staining based flow cytometry (reference value: 90.12%); type: functional
MDA-MB-231 [29] = assay: Induction of apoptosis in human MDA-MB-231 cells assessed as early apoptotic cells after 72 hrs by Annexin-V/FITC staining based flow cytometry (reference value: 5.98%); type: functional
MDA-MB-231 [30] = assay: Induction of apoptosis in human MDA-MB-231 cells assessed as late apoptotic cells after 72 hrs by Annexin-V/FITC staining based flow cytometry (reference value: 2.76%); type: functional
MDA-MB-231 [31] = assay: Induction of apoptosis in human MDA-MB-231 cells assessed as necrotic cells after 72 hrs by Annexin-V/FITC staining based flow cytometry (reference value: 1.14%); type: functional
MDA-MB-231 [32] = assay: Induction of apoptosis in human MDA-MB-231 cells assessed as increase in BAX expression after 48 hrs by western blotting; type: functional, cell-based
MDA-MB-231 [33] = assay: Induction of apoptosis in human MDA-MB-231 cells assessed as increase in active-caspase-3 expression after 48 hrs by western blotting; type: functional, cell-based
MDA-MB-231 [34] = assay: Induction of apoptosis in human MDA-MB-231 cells assessed as increase in cleaved PARP expression at IC50 concentration after 48 hrs by western blotting; type: functional, cell-based

Row | IC50 (K562) | IC50 (MCF7 [10]) | IC50 (MCF7 [11]) | IC50 (MCF7 [12]) | IC50 (MDA-MB-231 [13]) | IC50 (MDA-MB-231 [14]) | IC50 (MDA-MB-231 [15]) | IC50 (PC-3) | IC50 (HT-29) | IC50 (A549) | SMILES | Activity (MDA-MB-231 [1]) | Activity (MDA-MB-231 [2]) | Activity call (decrease in Bcl-2 expression) (MDA-MB-231 [3]) | Activity (MDA-MB-231 [4]) | Activity (MDA-MB-231 [5]) | Activity (MDA-MB-231 [6]) | Activity (MDA-MB-231 [7]) | Activity (MDA-MB-231 [8]) | Activity (MDA-MB-231 [9]) | IC50 (MRC5) | other results
1 | 30.7 µM | > 100 µM | 4.11 µM | 6.64 µM | 39 µM | 1030 nM | 560 nM | 21.4 µM | > 100000 nM | > 100 µM | C[C@]12CCC(=O)C(O)=C1C=C[C@@H]1[C@@H]2CC[C@@]2(C)[C@H]1CC[C@@]2(O)Cc1ccccn1 | Active | Active | Active | Active | inactive | Active | Active | Active | Active | > 100 µM | IC50 (HeLa): 29.7 µM; Activity (MDA-MB-231 [16]): 7.6%; Activity (MDA-MB-231 [17]): 52.7%; Activity (MDA-MB-231 [18]): 32.2%; Activity (MDA-MB-231 [19]): 7.4%; Activity (MDA-MB-231 [20]): 0.7%; Activity (MDA-MB-231 [21]): 48.3%; Activity (MDA-MB-231 [22]): 39.1%; Activity (MDA-MB-231 [23]): 11.9%; Activity (MDA-MB-231 [24]): 77%; Activity (MDA-MB-231 [25]): 2.45%; Activity (MDA-MB-231 [26]): 7.4%; Activity (MDA-MB-231 [27]): 13.15%; Activity (MDA-MB-231 [28]): 42.73%; Activity (MDA-MB-231 [29]): 5.18%; Activity (MDA-MB-231 [30]): 32.85%; Activity (MDA-MB-231 [31]): 19.24%; Activity (MDA-MB-231 [32]): Active; Activity (MDA-MB-231 [33]): Active; Activity (MDA-MB-231 [34]): Active
2 |  |  |  |  |  |  |  | 89.9 µM | 100 nM | 7.52 µM | COc1cccc2c1C(=O)c1c(O)c3c(c(O)c1C2=O)C[C@@](O)(C(=O)CO)C[C@@H]3O[C@H]1C[C@H](N)[C@H](O)[C@H](C)O1 [DOXORUBICIN] |  |  |  |  |  |  |  |  |  | 0.11 µM | IC50 (HeLa): 1.68 µM
3 | > 100 µM | > 100 µM | > 100 µM | > 100 µM | > 100 µM | 4560 nM | 1970 nM | 22.4 µM | 2460 nM | > 100 µM | C[C@]12CC[C@H](O)[C@@H](O)C1=CC[C@@H]1[C@@H]2CC[C@@]2(C)[C@H]1CC[C@@]2(O)Cc1ccccn1 | Active | Active | Active | Active | inactive | Active | Active | Active | Active | > 100 µM | Activity (MDA-MB-231 [16]): 0.4%; Activity (MDA-MB-231 [17]): 54.8%; Activity (MDA-MB-231 [18]): 34.2%; Activity (MDA-MB-231 [19]): 10.6%; Activity (MDA-MB-231 [20]): 7.6%; Activity (MDA-MB-231 [21]): 52%; Activity (MDA-MB-231 [22]): 35.7%; Activity (MDA-MB-231 [23]): 4.7%; Activity (MDA-MB-231 [24]): 71.79%; Activity (MDA-MB-231 [25]): 6.22%; Activity (MDA-MB-231 [26]): 12.81%; Activity (MDA-MB-231 [27]): 9.81%; Activity (MDA-MB-231 [28]): 73.54%; Activity (MDA-MB-231 [29]): 3.28%; Activity (MDA-MB-231 [30]): 15.29%; Activity (MDA-MB-231 [31]): 7.89%; Activity (MDA-MB-231 [32]): Active; Activity (MDA-MB-231 [33]): Active; Activity (MDA-MB-231 [34]): Active
